PubChem BioAssay (NCI)
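Dose response: 5 concentrations. Exposure: 48 h. Format: 96-well plates. Endpoint: linear interpolation; highest concentration if not reached. TGI marks complete inhibition of growth.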

These compounds were tested on SR leukemia (assay: DTP human tumour cell line panel, 48 h).
`COc1cc(-c2nc3ccccn3c2/N=C/c2cc(Br)cc(Br)c2O)ccc1O` was tested, and the TGI was 62.7 µM.
In the case of `COC(=O)Nc1nc2ccc(S(=O)(=O)SC)cc2[nH]1`, the TGI is reported as 62.8 µM.
For `CCN(CC)CCSc1c2cc(OC)ccc2nc2ccc(OC)cc12`, the TGI was > 21.8 µM.
For `CO/C=C(/C(=O)OC)c1ccccc1COc1cccc(C(F)(F)F)c1`, the TGI was > 100 µM.
For `CCOC(=O)c1ccc(NCc2ccc3oc(=O)c(-c4ccccc4)nc3c2)cc1`, the TGI was > 100 µM.
`C1=Cc2cc3c(c4nccc(c24)N1)OCO3` was tested, and the TGI was 5.78 µM.
With `CC(C)=CCC(O)[C@](C)(O)[C@H]1[C@H](O)C[C@@]2(C)[C@@H]3CCc4cc(O)c(OC5OC(CO)C(O)C(O)C5O)cc4C3(C)C(=O)C[C@]12C` (some centres not stated) the TGI was > 100 µM.
In the case of `C[N+]1(C)CCc2cc(O)c(O)cc2C1Cc1ccc(O)c(O)c1` (configuration not stated), the TGI is reported as 86.1 µM.
With `O=C1NC2O[C@H](CNC(=O)c3cc(Br)c[nH]3)CC2(O)N1` (mixture of isomers) the TGI was > 100 µM.

The compounds below were run on PC-3 prostate (assay: DTP human tumour cell line panel, 48 h).
`C(/C=C/Nc1ccc(Oc2ccccc2)cc1)=Nc1ccc(Oc2ccccc2)cc1` showed a TGI of 28.4 µM.
`O=C(/C=C/c1ccc2ccccc2c1)NCc1ccc(C(=O)NCCc2ccccc2)cc1` was tested, and the TGI was > 100 µM.
For `Nc1nc(-[n+]2ccc(-c3ccncc3)cc2)nc(Cl)c1Cl`, the TGI was > 100 µM.
`CC(C)OC(=O)/C=C/C(=O)O/C=C/[N+](=O)[O-]` was tested, and the TGI was > 100 µM.
With `C[C@@H](c1ccccc1)n1c(N)c(C#N)c2ccc([N+](=O)[O-])cc2c1=O` the TGI was > 100 µM.
For `CC1(C)OC(=O)N(c2ccccc2)C12C=Cc1cc([N+](=O)[O-])ccc1O2` (configuration not stated), the TGI was > 100 µM.
For `COC1=C(OC)C(=O)C(Cc2c(C)nc3sccn23)=C(C)C1=O`, the TGI was 51.6 µM.
For `CCOc1ncn(-c2ccc(NC(=S)NC3OC(CO)C(O)C(O)C3O)cc2)n1` (configuration not stated), the TGI was > 100 µM.
For `CC1(C)/C(=C/N=O)N(O)C(C)(C)N1O`, the TGI was > 100 µM.
Compound `COC(=O)c1cc2c(cc1Cl)Sc1nnc(Nc3ccc(C)cc3)n1S2(=O)=O` has a TGI of 18 µM.
For `N#Cc1c(-c2ccccc2)[nH]c2ccc(Cl)cc2c1=O`, the TGI was > 100 µM.
`N#C[C@@H](c1ccccn1)c1ncccc1[N+](=O)[O-]` was tested, and the TGI was > 100 µM.
For `N#Cc1[nH]c(=O)n(-c2ccccc2)c1N`, the TGI was > 10 µM.
`COC(=O)C1=CS/C(=C2\S[C@@H]3[C@H](S2)[C@H]2C=C[C@@H]3C2)S1` was tested, and the TGI was > 100 µM.
`CC(=O)Oc1ccc2cc(-c3ccccc3OC(C)=O)c(=O)oc2c1` was tested, and the TGI was > 100 µM.
In the case of `O=[N+]([O-])c1ccc(S(=O)(=O)n2c3ccc(Br)cc3c3nc4ccccc4nc32)cc1`, the TGI is reported as > 100 µM.
In the case of `CC(=O)[C@@H](C)C(=O)N1C(=O)OC[C@@]12[C@@H]1CC[C@@H](C1)C2(C)C`, the TGI is reported as > 100 µM.
Work on `COc1cc(-c2nc3ccccn3c2/N=C/c2cc(Br)cc(Br)c2O)ccc1O` yielded a TGI of 65.8 µM.
In the case of `COC(=O)Nc1nc2ccc(S(=O)(=O)SC)cc2[nH]1`, the TGI is reported as 16.2 µM.
Work on `CCN(CC)CCSc1c2cc(OC)ccc2nc2ccc(OC)cc12` yielded a TGI of 12.1 µM.
In the case of `CO/C=C(/C(=O)OC)c1ccccc1COc1cccc(C(F)(F)F)c1`, the TGI is reported as > 100 µM.
`CCOC(=O)c1ccc(NCc2ccc3oc(=O)c(-c4ccccc4)nc3c2)cc1` was tested, and the TGI was > 100 µM.
For `C1=Cc2cc3c(c4nccc(c24)N1)OCO3`, the TGI was > 100 µM.
For `CC(C)=CCC(O)[C@](C)(O)[C@H]1[C@H](O)C[C@@]2(C)[C@@H]3CCc4cc(O)c(OC5OC(CO)C(O)C(O)C5O)cc4C3(C)C(=O)C[C@]12C` (some centres not stated), the TGI was > 100 µM.
In the case of `C[N+]1(C)CCc2cc(O)c(O)cc2C1Cc1ccc(O)c(O)c1` (configuration not stated), the TGI is reported as > 100 µM.
In the case of `O=C1NC2O[C@H](CNC(=O)c3cc(Br)c[nH]3)CC2(O)N1` (mixture of isomers), the TGI is reported as > 100 µM.

The compounds below were run on CAKI-1 renal (assay: DTP human tumour cell line panel, 48 h).
`C(/C=C/Nc1ccc(Oc2ccccc2)cc1)=Nc1ccc(Oc2ccccc2)cc1` was tested, and the TGI was 32.7 µM.
For `O=C(/C=C/c1ccc2ccccc2c1)NCc1ccc(C(=O)NCCc2ccccc2)cc1`, the TGI was > 100 µM.
For `CC(C)OC(=O)/C=C/C(=O)O/C=C/[N+](=O)[O-]`, the TGI was > 100 µM.
Work on `C[C@@H](c1ccccc1)n1c(N)c(C#N)c2ccc([N+](=O)[O-])cc2c1=O` yielded a TGI of 39.3 µM.
With `CC1(C)OC(=O)N(c2ccccc2)C12C=Cc1cc([N+](=O)[O-])ccc1O2` (configuration not stated) the TGI was > 100 µM.
With `COC1=C(OC)C(=O)C(Cc2c(C)nc3sccn23)=C(C)C1=O` the TGI was 34.9 µM.
For `CC1(C)/C(=C/N=O)N(O)C(C)(C)N1O`, the TGI was > 100 µM.
Work on `COC(=O)c1cc2c(cc1Cl)Sc1nnc(Nc3ccc(C)cc3)n1S2(=O)=O` yielded a TGI of 22 µM.
For `N#Cc1c(-c2ccccc2)[nH]c2ccc(Cl)cc2c1=O`, the TGI was > 100 µM.
`N#C[C@@H](c1ccccn1)c1ncccc1[N+](=O)[O-]` was tested, and the TGI was > 100 µM.
In the case of `COC(=O)C1=CS/C(=C2\S[C@@H]3[C@H](S2)[C@H]2C=C[C@@H]3C2)S1`, the TGI is reported as > 100 µM.
`O=[N+]([O-])c1ccc(S(=O)(=O)n2c3ccc(Br)cc3c3nc4ccccc4nc32)cc1` was tested, and the TGI was > 100 µM.
For `CC(=O)[C@@H](C)C(=O)N1C(=O)OC[C@@]12[C@@H]1CC[C@@H](C1)C2(C)C`, the TGI was > 100 µM.
For `COc1cc(-c2nc3ccccn3c2/N=C/c2cc(Br)cc(Br)c2O)ccc1O`, the TGI was 93.3 µM.
`COC(=O)Nc1nc2ccc(S(=O)(=O)SC)cc2[nH]1` was tested, and the TGI was > 100 µM.
In the case of `CCN(CC)CCSc1c2cc(OC)ccc2nc2ccc(OC)cc12`, the TGI is reported as 22.9 µM.
Compound `CO/C=C(/C(=O)OC)c1ccccc1COc1cccc(C(F)(F)F)c1` has a TGI of 53.9 µM.
For `CCOC(=O)c1ccc(NCc2ccc3oc(=O)c(-c4ccccc4)nc3c2)cc1`, the TGI was 52.5 µM.
For `C1=Cc2cc3c(c4nccc(c24)N1)OCO3`, the TGI was > 32.1 µM.
In the case of `CC(C)=CCC(O)[C@](C)(O)[C@H]1[C@H](O)C[C@@]2(C)[C@@H]3CCc4cc(O)c(OC5OC(CO)C(O)C(O)C5O)cc4C3(C)C(=O)C[C@]12C` (some centres not stated), the TGI is reported as > 100 µM.
In the case of `C[N+]1(C)CCc2cc(O)c(O)cc2C1Cc1ccc(O)c(O)c1` (configuration not stated), the TGI is reported as > 100 µM.
`O=C1NC2O[C@H](CNC(=O)c3cc(Br)c[nH]3)CC2(O)N1` (mixture of isomers) was tested, and the TGI was > 100 µM.
